A value given as a limit tells only on which side of the number the result lay.

For the experiment, the target named is mTOR/GbL/Raptor (mTORC1) (Homo sapiens, UniProt P42345). Kind of experiment: mTOR/GbL/Raptor (mTORC1) ELISA assay. Conditions: phosphorylation of 4E-BP1; 0.2 nM mTORC1, 10 μM ATP; read-out: IC50 in this assay (mTORC1 ELISA). In kind it is biochemical. The method in brief:
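Human mTORC1 (0.2 nM) phosphorylated 50 nM His-tagged 4E-BP1 with 10 µM ATP in HEPES pH 7.2 containing 10 mM MnCl2, 120 min at ambient temperature. Substrate was captured on Ni-chelate plates; phospho-4E-BP1 was detected by primary antibody and HRP secondary with luminescence.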
(ELISA stands for enzyme-linked immunosorbent assay.)
`CC1=CC(C)(C)Cc2c1ncnc2N1CCOc2ccc(-c3cnc4nc(C)[nH]c4c3)cc2C1` [Example 554, 7-(2-methyl-1H-imidazo[4,5-b]pyridin-6-yl)-4-(6,6,8-trimethyl-5,6-dihydroquinazolin-4-yl)-2,3,4,5-tetrahydro-1,4-benzoxazepine]: the IC50 is ≤ 10 nM.

As to `Cc1nc2ncc(-c3ccc4c(c3)CN(c3ncnc5c3CC(C)CC5)CCO4)cc2[nH]1` (centres unmarked) [Example 555, 7-(2-methyl-1H-imidazo[4,5-b]pyridin-6-yl)-4-(6-methyl-5,6,7,8-tetrahydroquinazolin-4-yl)-2,3,4,5-tetrahydro-1,4-benzoxazepine], the IC50 is ≤ 10 nM.

`Cc1nc2ncc(-c3ccc4c(c3)CN(c3ncnc5c3CCC(C)C5)CCO4)cc2[nH]1` (centres unmarked) [Example 556, 7-(2-methyl-1H-imidazo[4,5-b]pyridin-6-yl)-4-(7-methyl-5,6,7,8-tetrahydroquinazolin-4-yl)-2,3,4,5-tetrahydro-1,4-benzoxazepine]: the IC50 lay in the range of 10 to 50 nM.

On to `Cc1nc2ncc(-c3ccc4c(c3)CN(c3ncnc5c3CCC(C)(c3ccccc3)C5)CCO4)cc2[nH]1` (centres unmarked) [Example 558, 7-(2-methyl-1H-imidazo[4,5-b]pyridin-6-yl)-4-(7-methyl-7-phenyl-5,6,7,8-tetrahydroquinazolin-4-yl)-2,3,4,5-tetrahydro-1,4-benzoxazepine], for which the IC50 is ≤ 10 nM.

On to `Cc1nc2ncc(-c3ccc4c(c3)CN(c3ncnc5c3CC[C@@H](C)C5)CCO4)cc2[nH]1` [Example 559, 7-(2-methyl-1H-imidazo[4,5-b]pyridin-6-yl)-4-[(7R)-7-methyl-5,6,7,8-tetrahydroquinazolin-4-yl]-2,3,4,5-tetrahydro-1,4-benzoxazepine], for which the IC50 was in the range of 10 to 50 nM.

For the compound `Cc1nc2ncc(-c3ccc4c(c3)CN(c3ncnc5c3CC[C@H](C)C5)CCO4)cc2[nH]1` [Example 560, 7-(2-methyl-1H-imidazo[4,5-b]pyridin-6-yl)-4-[(7S)-7-methyl-5,6,7,8-tetrahydroquinazolin-4-yl]-2,3,4,5-tetrahydro-1,4-benzoxazepine], the IC50 was 50 to 250 nM.

As for `Cc1nc2ncc(-c3ccc4c(c3)CN(c3ncnc(N5CCN(C)CC5)c3C)CCO4)cc2[nH]1` [Example 563, 7-(2-methyl-1H-imidazo[4,5-b]pyridin-6-yl)-4-[5-methyl-6-(4-methylpiperazin-1-yl)pyrimidin-4-yl]-2,3,4,5-tetrahydro-1,4-benzoxazepine], the IC50 was 250 to 1000 nM.

Take `Cc1nc2ncc(-c3ccc4c(c3)CN(c3ncnc(C)c3C(C)C)CCO4)cc2[nH]1` [Example 564, 7-(2-methyl-1H-imidazo[4,5-b]pyridin-6-yl)-4-[6-methyl-5-(1-methylethyl)pyrimidin-4-yl]-2,3,4,5-tetrahydro-1,4-benzoxazepine]: the IC50 is ≤ 10 nM.

`COc1ccc2c(N3CCOc4ccc(-c5cnc6nc(C)[nH]c6c5)cc4C3)ncnc2c1` [Example 565, 7-(2-methyl-1H-imidazo[4,5-b]pyridin-6-yl)-4-[7-(methyloxy)quinazolin-4-yl]-2,3,4,5-tetrahydro-1,4-benzoxazepine]: the IC50 was in the range of 50 to 250 nM.

Consider `Cc1nc2ncc(-c3ccc4c(c3)CN(c3ncnc5c3CCC(C(F)(F)F)C5)CCO4)cc2[nH]1` (centres unmarked) [Example 566, 7-(2-methyl-1H-imidazo[4,5-b]pyridin-6-yl)-4-[7-(trifluoromethyl)-5,6,7,8-tetrahydroquinazolin-4-yl]-2,3,4,5-tetrahydro-1,4-benzoxazepine], for which the IC50 was in the range of 10 to 50 nM.

Take `COCC1CCc2c(ncnc2N2CCOc3ccc(-c4cnc5nc(C)[nH]c5c4)cc3C2)C1` (centres unmarked) [Example 567, 7-(2-methyl-1H-imidazo[4,5-b]pyridin-6-yl)-4-{7-[(methyloxy)methyl]-5,6,7,8-tetrahydrquinazolin-4-yl}-2,3,4,5-tetrahydro-1,4-benzoxazepine]: the 50% inhibitory concentration (IC50) is 50 to 250 nM.

As for `COc1ccc2c(N3CCOc4ccc(-c5cnc6[nH]c(C)nc6c5)cc4C3)nc(C)nc2c1` [Example 568, 7-(2-methyl-1H-imidazo[4,5-b]pyridin-6-yl)-4-[2-methyl-7-(methyloxy)quinazolin-4-yl]-2,3,4,5-tetrahydro-1,4-benzoxazepine], the IC50 lay within 50 to 250 nM.

`COc1ccc2c(N3CCOc4ccc(-c5ccc(-c6c[nH]cn6)cc5)cc4C3)nc(C)nc2c1` [Example 570, 7-[4-(1H-imidazol-4-yl)phenyl]-4-[2-methyl-7-(methyloxy)quinazolin-4-yl]-2,3,4,5-tetrahydro-1,4-benzoxazepine]: the IC50 was in the range of 50 to 250 nM.

On to `CC1(C)CCc2ncnc(N3CCOc4ccc(-c5cnc6c(c5)S(=O)(=O)NC(=O)N6)cc4C3)c2C1` [Example 571, 7-[4-(6,6-dimethyl-5,6,7,8-tetrahydroquinazolin-4-yl)-2,3,4,5-tetrahydro-1,4-benzoxazepin-7-yl]-2H-pyrido[2,3-e][1,2,4]thiadiazin-3(4H)-one 1,1-dioxide], for which the IC50 is 50 to 250 nM.

In the case of `CC1(C)CCc2ncnc(N3CCOc4ccc(-c5cnc(Cl)c(OC(F)F)c5)cc4C3)c2C1` [Example 573, 7-{6-chloro-5-[(difluoromethyl)oxy]pyridin-3-yl}-4-(6,6-dimethyl-5,6,7,8-tetrahydroquinazolin-4-yl)-2,3,4,5-tetrahydro-1,4-benzoxazepine], the IC50 was 250 to 1000 nM.

Consider `CC1(C)CCc2ncnc(N3CCOc4ccc(-c5cnc(Cl)c(CS(C)(=O)=O)c5)cc4C3)c2C1` [Example 574, 7-{6-chloro-5-[(methylsulfonyl)methyl]pyridin-3-yl}-4-(6,6-dimethyl-5,6,7,8-tetrahydroquinazolin-4-yl)-2,3,4,5-tetrahydro-1,4-benzoxazepine], for which the IC50 is 1000 to 2000 nM.

For `CC1(C)CCc2ncnc(N3CCOc4ccc(-c5cnc(N)c(S(=O)(=O)N6C7CCC6CC(N)C7)c5)cc4C3)c2C1` (centres unmarked) [Example 575, 8-({2-amino-5-[4-(6,6-dimethyl-5,6,7,8-tetrahydroquinazolin-4-yl)-2,3,4,5-tetrahydro-1,4-benzoxazepin-7-yl]pyridin-3-yl}sulfonyl)-8-azabicyclo[3.2.1]octan-3-amine], the IC50 lay in the range of 10 to 50 nM.

For the compound `CCOC(=O)Nc1nc2ncc(-c3ccc4c(c3)CN(c3ncnc5c3CC(C)(C)CC5)CCO4)cc2[nH]1` [Example 576, ethyl {6-[4-(6,6-dimethyl-5,6,7,8-tetrahydroquinazolin-4-yl)-2,3,4,5-tetrahydro-1,4-benzoxazepin-7-yl]-1H-imidazo[4,5-b]pyridin-2-yl}carbamate], the IC50 was in the range of 10 to 50 nM.

`CC[C@H]1CCc2c(nc(C)nc2N2CCOc3ccc(-c4cnc5nc(NC(=O)OC)[nH]c5c4)cc3C2)C1` [Example 577, methyl (6-{4-[(7S)-7-ethyl-2-methyl-5,6,7,8-tetrahydroquinazolin-4-yl]-2,3,4,5-tetrahydro-1,4-benzoxazepin-7-yl}-1H-imidazo[4,5-b]pyridin-2-yl)carbamate]: the IC50 is 10 to 50 nM.

Consider `CC[C@H]1CCc2c(ncnc2N2CCOc3ccc(-c4cnc5nc(NC(=O)OC)[nH]c5c4)cc3C2)C1` [Example 578, methyl (6-{4-[(7S)-7-ethyl-5,6,7,8-tetrahydroquinazolin-4-yl]-2,3,4,5-tetrahydro-1,4-benzoxazepin-7-yl}-1H-imidazo[4,5-b]pyridin-2-yl)carbamate], for which the IC50 was 10 to 50 nM.

As a reminder, the IC50 is the midpoint of a concentration-inhibition curve.

Source of the values: patent publication US8648066B2 (Exelixis, Inc., priority 2009, dated 2014).
